# Laboratory results taken from US20240350456A1, “COMPOSITIONS AND METHODS FOR DIAGNOSING AND TREATING INFLAMMATORY CONDITIONS” (RUTGERS, THE STATE UNIVERSITY OF NEW JERSEY, priority 2023, published 2024).
# Entries after “also recorded” stand apart in the source; their conditions may differ.
# Legend:
# [1] = tested on: polarized human Caco-2-BBE cells; experiment: Nitric oxide production in polarized Caco-2-BBE cells; assay type: cell-based; settings: 24 h exposure, 5% LGG supernatant or single metabolites
# Protocol: Lastly, NOS2 activity was analyzed in cells treated with an LGG supernatant (orange bar, FIG. 15).
# ZO-1 (Tjp1) and Ocln = experiment: Intestinal organoids treated with LPS and metabolites: tight junction (TJ) expression, RT-qPCR and immunostaining; assay type: cell-based, mouse
# Protocol: (§1) Intestinal organoids were isolated as previously described (Das et al., 2015; Pearce et al., 2018). Briefly, crypts were isolated from small intestine of conventional house C57BL/6 male mice (Taconic Laboratories, Hudson, NY) by shaking in isolation buffer (2 mM EDTA in PBS), then, crypts were harvested, processed, and suspended in crypt culture medium (CCM), which consisted of advanced DMEM/F12 (Life Technologies, Carlsbad, CA) supplemented with serum-free B27 (1:50; Life Technologies), N2 (1:100; Life Technologies), N-acetylcysteine (1 mM; Sigma-Aldrich, St. Louis, MO), recombinant murine epithelial growth factor (EGF, 50 ng/ml; Peprotech, Rocky Hill, NJ), Noggin (100 ng/ml; Peprotech), R-Spondin (500 ng/ml; Peprotech), Glutamax-I supplement (1:100; Life Technologies), penicillin/streptomycin (500 μg/ml; Life Technologies), and HEPES ([…]; Life Technologies). Crypts were resuspended in 70% Matrigel (density ˜450 crypts per dome, 2 domes per well in 24-well plate) and allowed to solidify at 37° C. for 20 min. CCM (1.5 mL) was then added to each well. Cultures were incubated in a humidified incubator at 37° C., and CCM was changed daily. Intestinal organoid treatment with LPS and metabolites
# (§2) We had 2 series of metabolite-treated organoid experiments, i.e., 1) organoid from conventional C57BL6 mice and 2) Ocln KO and littermate WT control as a gift from Prof. Jerrold Turner (Harvard University). […] Seeding is designated as day 0. On day 3 of culture, the existing media in the wells were completely removed before adding treatments. LPS (1 μg/mL) with or without metabolites, i.e., IPA (0.1 mM) (Li et al., 2021), IAM (200 μM) (Vyhlidalova et al., 2020), MNA (12 ng/ml) (Liu et al., 2015), CARN (20 mM) (Boldyrev et al., 2013) or ASA (1 μM) (Erez et al., 2011) were each added in CCM at known physiological concentrations, incubated for 48 hours, thereafter, organoid was harvested for RNA extraction, and paraformaldehyde fixation for immunostaining.
# (§3) Total RNA was extracted from the intestinal organoids using a commercially available kit (RNeasy Microkit; Qiagen, MD, Cat. #74004) following manufacturer's instructions. mRNA samples were converted to cDNA using Bio-Rad's iScript Reverse Transcription Supermix for RT-qPCR (Bio-Rad Laboratories, Hercules, CA, Cat. #1708840). cDNA was then used for RT-qPCR (Mx3000P. Stratagene, La Jolla, CA) to analyze several genes using Maxima SYBR Green qPCR Master Mix (Thermo Fisher Scientific, Waltham, MA) and primers (Integrated DNA Technologies, Coralville, IA). Thermal profile for three-step cycling was 10 min at 95° C. for initial denaturation; then 40 cycles of 15 sec at 95° C. for denaturation, 30 sec at 65° C. for annealing, and 30 sec at 75° C. for extension. Primers used are as follows: β-actin (Actb), forward 5′-[…]-3′ (SEQ ID NO: 5), reverse 5′-[…]-3′ (SEQ ID NO: 6); ZO-1 (Tjp1), forward 5′-[…]-3′ (SEQ ID NO: 7), reverse 5′-[…]-3′ (SEQ ID NO: 8), Ocln, forward 5′-[…]-3′ (SEQ ID NO: 9), reverse 5′-[…]-3′ (SEQ ID NO: 10); Lyz1, forward 5′-ATGGCTACCGTGGTGTCAAG-3′ (SEQ ID NO: 11), reverse 5′-CGGTCTCCACGGTTGTAGTT-3′ (SEQ ID NO: 12); Tff3, forward 5′-TAATGCTGTTGGTGGTCCTG-3′ (SEQ ID NO: 13), reverse 5′-CAGCCACGGTTGTTACACTG-3′ (SEQ ID NO: 14). All samples were normalized to β actin expression. Gene expression levels are depicted as fold change relative to the control group.
# (§4) Immunocytochemistry followed earlier work (Pearce et al., 2018). Briefly, organoids were extracted from Matrigel by using cell recovery solution (Corning, Cat. No. 354253), processed then fixed in 4% paraformaldehyde for 15 min and dehydrated with 70% ethanol and kept in 4° C. until embedded in paraffin. On the day of embedding, organoids were gently spun down to a pellet (250 g for 5 min), then the supernatant was removed, the pellet resuspended in agarose and embedded in paraffin. […]
# [2] = tested on: mouse intestinal organoids; experiment: Organoid permeability assay with 4 kDa FITC-dextran, LPS with or without metabolites; assay type: cell-based; settings: ex vivo organoids
# Protocol: as §1, §2
# Permeability assays followed earlier work (Pearce et al., 2018). Briefly, all media were removed and then organoid were incubated with CCM containing 4 kDa FITC-dextran (Sigma-Aldrich, St. Louis, MO, Cat. #46944) at a final concentration of 1.25 µM for 30 minutes at 37° C. and at 5% CO2. […] A fluorescent microscope (Nikon Eclipse TI, NY) at a 10× magnification was used to observe and capture the fluorescence within the lumen of the organoids. Using the same area as the lumen, three different background samples are measured randomly around the lumen. The three background samples measured are averaged and then subtracted from the measured fluorescence of the lumen. […] The quantification of the fluorescence was conducted using the ImageJ 1.53 (NIH, Bethesda, MD).
# [3] = tested on: Tff3 and Lyz1 (goblet and Paneth cells); experiment: Organoids: goblet and Paneth cell transcripts (Tff3, Lyz1) and cell numbers; assay type: cell-based, mouse; settings: enteroids
# Protocol: as §2, §3, §4
# [4] = tested on: human-derived Caco-2 cells; experiment: In vitro transwell screening in Caco-2 cells, barrier disrupted by Clostridium difficile toxin (TEER and FITC-dextran permeability); assay type: cell-based; settings: applied in the basolateral compartment, TOX
# [5] = tested on: C57BL/6 mice with DSS-induced mild colitis; experiment: DSS induced mild colitis treatment with LGG metabolites (2.5% DSS); assay type: in vivo, mouse; settings: metabolite i.p. twice
# Protocol: FIG. 13A-13M. IPA requires Ocln to alleviate LPS-induced leaky epithelium. FIG. 13A, experimental design. Organoids were derived from tamoxifen-inducible, intestine-specific Ocln-knockout (KO) mice generated by crossing a floxed Ocln^fl/fl with Villin-CreERT2 mice. FIG. 13B, Representative images and FIG. 13C, quantitative analysis of permeability assay. LPS was added to CCM media (basolateral side) with and without IPA […] and IAM (200 μM) (n=3 mice). *** P<0.001, compared with WT control, †P<0.05 compared with KO-control. FIG. 13D, Representative images of immunofluorescent staining of Ocln in WT control and Ocln KO conventional mice, L=lumen. MNA improves but ASA exacerbates dextran sodium sulfate (DSS)-induced leaky gut. FIG. 13E, experimental design, evaluation in vivo of metabolites (Met). Methylnicotinamide (MNA. […]) and L-argininosuccinate (ASA. 3.6 mg/kg) were administered (i.p.) twice 1-day before and 3 days after DSS treatment p.o. 4 kDa fluorescein isothiocyanate (FITC)-dextran was gavaged 4 h before sacrifice. FIG. 13F, body weight of DSS-treated mice with and without metabolites, FIG. 13G, representative images of Ocln-stained colon sections (green; left panel) and ECad (red; middle). Merged images (yellow; right panel) depict Ocln location in TJ of MNA-treated but not in DSS-only and ASA-treated colon (arrows). Quantitative fluorescent intensity of Ocln (FIG. 13H) and ECad (FIG. 13I) in the TJ, relative to DSS only controls. FIG. 13J, DSS scoring. FIG. 13K, representative H&E images of DSS, DSS+ MNA and DSS+ASA colon sections. FIG. 13L, In vivo permeability as determined by fluorescent intensity of FITC in serum. FIG. 13M, Serum level of interleukin-6.
# DSS induced mild colitis treatment with LGG metabolites. To assess in vivo impact of metabolites on gut barrier function, conventional C57BL/6 mice (8 weeks of age) were administered with 2.5% dextran sodium sulfate (DSS) in drinking water to induce mild colitis. Animals were intraperitoneal injected with either PBS vehicle, 30 mg/kg methylnicotinamide chloride, or 3.6 mg/kg argininosuccinic acid dissolved in sterile PBS at Day-1 and Day 4 of the experiment. Body weight was recorded daily. At Day 7, 4 hours before sacrifice and collection of blood, animals were gavaged with 600 mg/kg with 4 kDa FITC-dextran. Blood was collected in 5% EDTA and subsequently centrifuged at 3000 g for 5 minutes for plasma collection. FITC readings were collected by diluting 25 μl of plasma in 75 μl of PBS and analyzed using a Glomax (Promega, GMMTE9032) with Ex490/Em510-570 filter cube module. Serum concentration of interleukin-6 (Cat. No. Biolegend 431304) was also determined. Ileum and colon sections were collected, fixed in 4% paraformaldehyde, processed for embedding in paraffin wax. Pathohistology of intestine was observed by routine H&E staining.
# [6] = tested on: leaky gut mouse model (DSS colitis); experiment: DSS (3%) leaky gut colitis mouse model, metabolites i.p.; assay type: in vivo; settings: 3% DSS; i.p. every other day; listed as ASA
# Source text: A moderate amount of DSS (3%) creates a leaky gut model.
# FIG. 23A, Analysis of plasma ovalbumin levels after oral ovalbumin gavage in mice treated with exogenous MNA or PBS. […] Analysis of fecal lipocalin levels in mice treated with PBS or MNA with or without DSS. […] Representative histology sections of mice treated with PBS or MNA with or without DSS. FIG. 23D, quantification of mouse histology sections scored for colitis index.
# FIG. 24A, Analysis of zonula occludens (Tjp1) and occluding (Ocln) mRNA levels after treatment with PBS or MNA with or without DSS. FIG. 24B, Western blot analysis and quantification of Ocln protein levels after treatment with PBS or MNA with or without DSS. FIG. 24C, Quantified levels of occluding in the ileum (top) and colon (bottom) using immunofluorescence antibody staining.
# Administration of DSS induces experimental colitis and disrupts gut barrier in vivo in animal models.
# Exogenous MNA administration was assessed by plasma ovalbumin levels after oral ovalbumin gavage—an accepted method to determine permeability of the gut paracellular pathway. […] (FIG. 23B) Histology sections of mice treated with or without DSS and PBS or MNA were also obtained. […] Sections from several mice were also examined by a blinded observer and scored for colitis index.
# (FIG. 24B) Using immunofluoresce antibody staining, quantified levels of occludin in the ileum and colon were also analyzed.
# ileal transcriptome = experiment: Germ-free mice monocolonized with LGG, trp+ or trp− diet: bulk RNA-sequencing of ileum; assay type: in vivo, mouse
# Protocol: Gnotobiotic study. After 5 days of acclimatization under GF conditions, two cages of GF mice (n=10) were fed with a trp-free diet and another 2 cages with a trp-sufficient diet. Purified diets were sterilized by double-irradiation (Research Diets, New Brunswick, NJ) then stored in −80° C. Two weeks afterward, five mice from the trp-deficient and five from trp-sufficient were gavaged with LGG and the remaining mice with sterile PBS. Body weight and food intake were recorded weekly. Fecal pellets were collected aseptically one week before, then one and three weeks post inoculation, then stored (−80° C.) for later analysis. Feces were also collected twice a week then analyzed immediately to monitor gnotobiotic status. All mice were sacrificed three weeks post inoculation, then serum, liver, ileum and colon collected.
# For LGG colonization, one cage of GF trp− mice and one cage of GF trp+ were orally gavaged with 200 μl of LGG (10^8 CFU/ml) in sterile PBS (LGG trp− and LGG trp+, respectively) while control GF received 200 μl sterile PBS (PBS trp− and PBS trp+).
# Total RNA was isolated from mouse ileum then purified with RNeasy Plus universal kit (Qiagen, Hilden, Germany) following manufacturer's instructions. […] For global assessment of mouse RNA levels, total RNA was subjected to two rounds of poly(A) selection using oligo (dT) 25 magnetic beads (New England Biolabs [NEB], Ipswich, MA). Illumina-compatible RNA-seq libraries were constructed using the NEBNext Ultra II RNA library prep with sample purification beads (Cat. No. E7775) and NEB Next Multiplex Oligos for Illumina (dual index primers set 1; Cat. No. E7600) according to the manufacturer's instructions. Poly(A) selection and library quality were assessed using TapeStation 2200 (Agilent Technologies, Santa Clara, CA), and libraries were quantified using Qubit 4.0 fluorometer (Thermo Fisher, Waltham, MA). The prepared libraries were sequenced on an Illumina NextSeq 500 instrument (Illumina, San Diego, CA). CLC Genomics Workbench version 20.0.4 (Qiagen, Venlo, Netherlands) was used for RNA-seq analysis. […]
smiles,measurement,setting,value
N=C(N)NCCC[C@H](N)C(=O)O [Arginine],NO production (fluorescence intensity),[1],NO production increases
"NCCC(=O)N[C@@H](Cc1cnc[nH]1)C(=O)O [Carnosine, carnosine]",gene expression of Ocln,"ZO-1 (Tjp1) and Ocln; ex vivo, in the presence of the barrier disruptor",increased gene expression of Ocln
same,TJ expression at the protein and mRNA levels,"ZO-1 (Tjp1) and Ocln; in the presence of LPS (1 μg/mL), 48 hr",increased TJ expression
same,"disruption of the gut barrier, fluorescence microscopy (FIG. 11M)",[2],prevented disruption of the gut barrier
same,goblet and Paneth cell transcripts and cell numbers,[3],reduced goblet and Paneth cell transcripts as well as cell numbers
O=Cc1c[nH]c2ccccc12 [Indole-3-carboxaldehyde],"TEER, indole metabolites",[4],more effective when applied in this compartment than in the luminal
"NC(=NCCC[C@H](N)C(=O)O)N[C@@H](CC(=O)O)C(=O)O [L-arginino-succinate, L-argininosuccinic acid]",TJ expression,"ZO-1 (Tjp1) and Ocln; metabolite alone, 48 hr",significantly reduced TJ expression
same,"disruption of the gut barrier, fluorescence microscopy (FIG. 11M)",[2],disrupted the gut
same,DSS-induced leaky gut (overall),[5],exacerbates
same,E-cad abundance and localization in colonic epithelial cells,[5],appeared dispersed
same,Ocln expression in colonic epithelium,[5],reduction in Ocln expression
same,body weight,[5]; vs DSS alone,greater tendency to lose weight
same,body weight loss and recovery in DSS leaky gut model,[6],"exacerbated the effects of DSS, and significantly delayed recovery; also recorded: exacerbates weight loss"
N[C@@H](Cc1c[nH]c2ccccc12)C(=O)O [Tryptophan],number of ileal transcripts affected by dietary trp,ileal transcriptome; GF mice,3917
same,number of ileal transcripts affected by dietary trp,ileal transcriptome; LGG mono-associated mice,5315
same,number of transcripts affected solely by dietary trp with or without LGG,"ileal transcriptome; mouse, in vivo",1496
NC(=O)NCCC[C@H](N)C(=O)O [citrulline],NO production (fluorescence intensity),[1],NO production increases
